Experimental data published in patent publication US20080299130A1, “Methods And Compositions For The Treatment Of Ocular Neovascularization” (UNIVERSITY OF KENTUCKY RESEARCH FOUNDATION, priority 2004, published 2008).

System: laser-induced CNV
Test: Laser-induced choroidal neovascularization (CNV) volume after intravitreous injection
Type: in vivo, mouse
Procedure: Laser photocoagulation (532 nm, 200 mW, 100 ms, 75 μm; OcuLight GL, Iridex, Mountain View, Calif.) was performed on both eyes of each animal by a single individual masked to genetic identity. Laser spots (volume studies: 3/eye; angiography: 4/eye; protein analyses/flow cytometry: 12/eye) were applied in a standardized fashion around the optic nerve, using a slit lamp delivery system and a cover slip as a contact lens. The morphological endpoint of the laser injury was the appearance of a cavitation bubble, a sign thought to correlate with the disruption of Bruch's membrane.
Two weeks after laser injury, eyes were enucleated and fixed with 4% paraformaldehyde (PFA) for 30 minutes at 4° C. […]
Flat mounts were examined with a scanning laser confocal microscope (TCS SP, Leica, Heidelberg, Germany). […] The area of CNV-related fluorescence was measured by computerized image analysis with the microscope software (TCS SP; Leica). […]
Because the probability of each laser lesion developing CNV is influenced by the group to which it belongs, the mouse, the eye, and the laser spot, the mean lesion volumes were compared using a linear mixed model with a split plot repeated measures design, as previously described (Sakurai, et al., (2003), Invest Opthalmol Vis Sci 44, 2743-2749; Sakurai et al., (2003), Invest Opthalmol Vis Sci 44, 3578.3585). […] Statistical significance was determined at the 0.05 level. […]

## Recombinant MCP-1: recombinant mouse MCP-1 protein (Ccl-2)
MCP-1 knock out mice (FIG. 5, FIG. 6)
  Effect on CNV: restores CNV
Recombinant MCP-1 0.55 ng given with anti-VEGF-A antibody, n=6, P=0.82
  CNV restored, % of control: 95.7±13.0 % of control
